Measurements: PMC10299128, “The Parallel Structure–Activity Relationship Screening of Three Compounds Identifies the Common Agonist Pharmacophore of Pyrrolidine Bis-Cyclic Guanidine Melanocortin-3 Receptor (MC3R) Small-Molecule Ligands” (International Journal of Molecular Sciences, 2023)
Like-named read-outs stand apart in the source and are kept apart here.

Assays:
mMC5R = mMC5R (Mus musculus, UniProt P41149); test: AlphaScreen cAMP agonist assay, HEK293 cells stably expressing mMC5R; details: for mMC5R percent maximal stimulatory response (compared to NDP-MSH): at 1 mM, not enough stimulation to determine EC50; for mMC5R agonist efficacy (in words): relative to NDP-MSH, full = >90% receptor activation; for mMC5R partial agonist efficacy bin: sigmoidal curve, efficacy <90% of NDP-MSH
mMC5R, sequence (P41149 whole entry): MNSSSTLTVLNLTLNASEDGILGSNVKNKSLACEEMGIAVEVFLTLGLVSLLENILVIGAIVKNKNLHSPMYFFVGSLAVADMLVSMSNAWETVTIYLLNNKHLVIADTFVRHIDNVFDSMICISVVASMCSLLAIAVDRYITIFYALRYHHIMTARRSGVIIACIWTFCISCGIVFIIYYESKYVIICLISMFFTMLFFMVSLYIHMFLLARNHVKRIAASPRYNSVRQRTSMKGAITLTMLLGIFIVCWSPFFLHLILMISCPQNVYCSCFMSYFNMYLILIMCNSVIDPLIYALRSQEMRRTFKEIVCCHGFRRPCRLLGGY
Procedure: (§1) Pyrrolidine bis-cyclic guanidine compounds were assessed for biological activity using the AlphaScreen cAMP kit with HEK293 cells stably expressing the mMC1R, mMC3R, mMC4R, or mMC5R, as previously described [37, 38, 39]. […] Compounds were assayed for agonist activity in a 7-point dose–response curve (10^−3 to 10^−9 M). […] The purified compounds were dissolved in DMSO at a stock concentration of 10^−1 M and assayed using HEK293 cells stably expressing the mouse MC1R, MC3R, MC4R, and MC5R using the AlphaScreen cAMP bioassay (PerkinElmer, Waltham, MA, USA) according to the manufacturer’s instructions and as previously described [37, 38, 39].
(§2) Briefly, cells 70−90% confluent were dislodged with Versene (Gibco, Waltham, MA, USA) at 37 °C and 10,000 cells/well were plated in a 384-well plate (Optiplate, PerkinElmer, Waltham, MA, USA) with 10 μL of freshly prepared stimulation buffer (1× HBSS, 5 mM HEPES, 0.5 mM IBMX, 0.1% BSA, pH = 7.4) with 0.5 μg of anti-cAMP acceptor beads per well. The cells were stimulated with the addition of 5 μL of stimulation buffer containing compound or forskolin (10^−4 M) and incubated in the dark at room temperature for 2 h. Following stimulation, streptavidin donor beads (0.5 μg) and biotinylated cAMP (0.62 μmol) were added to the wells in a green light environment with 10 μL of lysis buffer (5 mM HEPES, 0.3% Tween-20, 0.1% BSA, pH = 7.4) and the plates were incubated in the dark at room temperature for an additional 2 h. Plates were read on a Enspire (PerkinElmer, Waltham, MA, USA) Alpha plate reader using a pre-normalized assay protocol (set by the manufacturer).

mMC3R = mMC3R (Mus musculus, UniProt P33033); test: AlphaScreen cAMP agonist assay, HEK293 cells stably expressing mMC3R; details: for mMC3R partial agonist efficacy bin: sigmoidal curve, efficacy <90% of NDP-MSH
mMC3R, sequence (P33033 whole entry): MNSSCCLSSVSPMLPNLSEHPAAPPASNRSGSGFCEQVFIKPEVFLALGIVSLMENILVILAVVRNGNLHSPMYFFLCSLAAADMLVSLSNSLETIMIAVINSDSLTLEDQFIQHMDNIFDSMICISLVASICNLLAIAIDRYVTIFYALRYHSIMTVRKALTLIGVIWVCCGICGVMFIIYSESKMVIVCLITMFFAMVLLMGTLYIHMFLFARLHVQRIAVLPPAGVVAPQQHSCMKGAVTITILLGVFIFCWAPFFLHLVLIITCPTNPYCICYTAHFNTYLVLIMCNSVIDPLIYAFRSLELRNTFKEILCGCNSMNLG
Procedure: as §1, §2

mMC1R = mMC1R (Mus musculus, UniProt Q01727); test: AlphaScreen cAMP agonist assay, HEK293 cells stably expressing mMC1R; details: for mMC1R partial agonist efficacy bin: sigmoidal curve, efficacy <90% of NDP-MSH
mMC1R, sequence (Q01727 whole entry): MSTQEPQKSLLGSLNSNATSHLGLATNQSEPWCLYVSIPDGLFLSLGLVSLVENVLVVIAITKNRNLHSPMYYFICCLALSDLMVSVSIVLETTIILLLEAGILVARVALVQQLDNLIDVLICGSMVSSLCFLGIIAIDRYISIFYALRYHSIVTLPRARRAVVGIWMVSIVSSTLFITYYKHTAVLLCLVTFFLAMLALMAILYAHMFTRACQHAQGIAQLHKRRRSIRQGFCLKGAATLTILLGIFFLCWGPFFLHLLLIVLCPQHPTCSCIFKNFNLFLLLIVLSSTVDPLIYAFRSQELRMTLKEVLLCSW
Procedure: as §1, §2

mMC4R = mMC4R (Mus musculus, UniProt P56450); test: AlphaScreen cAMP agonist assay, HEK293 cells stably expressing mMC4R; details: for mMC4R partial agonist efficacy bin: sigmoidal curve, efficacy <90% of NDP-MSH
mMC4R, sequence (P56450 whole entry): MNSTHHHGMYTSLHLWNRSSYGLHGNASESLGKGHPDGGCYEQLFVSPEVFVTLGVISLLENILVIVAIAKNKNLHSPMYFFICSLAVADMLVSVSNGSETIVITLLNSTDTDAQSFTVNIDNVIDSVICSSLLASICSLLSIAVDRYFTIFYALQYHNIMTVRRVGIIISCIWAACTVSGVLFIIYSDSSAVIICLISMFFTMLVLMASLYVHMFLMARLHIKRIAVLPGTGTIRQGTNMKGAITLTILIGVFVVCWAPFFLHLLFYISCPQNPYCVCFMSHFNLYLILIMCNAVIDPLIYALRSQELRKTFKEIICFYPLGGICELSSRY
Procedure: as §1, §2

[1] = at 1 mM, not enough stimulation to determine EC50

Structure (SMILES)	mMC3R percent maximal stimulatory response (compared to NDP-MSH) (mMC3R; [1])	EC50 (mMC1R)	mMC1R partial agonist efficacy bin (mMC1R)	EC50 (mMC3R)	EC50 (mMC5R)	mMC4R percent maximal stimulatory response (compared to NDP-MSH) (mMC4R; [1])	mMC5R partial agonist efficacy bin (mMC5R)	also measured
CCC[C@@H]1CN([C@H](CC2CCCCC2)CN2CCC[C@H]2CN2C(=N)NC[C@H]2C(C)C)C(=N)N1CC [Compound 2718.014]	20% @ 1 mM	9 ± 3 µM	B (B (51–90% receptor activation))	–	–	–	–	mMC5R percent maximal stimulatory response (compared to NDP-MSH) (mMC5R): 50% @ 1 mM; EC50 (mMC4R): > 1000 µM
CCC[C@@H]1CN([C@H](CC2CCCCC2)CN2CCC[C@H]2CN2C(=N)NC[C@H]2C(C)C)C(=N)N1 [Compound 2718.015]	–	11 µM	B (B (51–90% receptor activation))	> 1000 µM	–	–	–	mMC5R percent maximal stimulatory response (compared to NDP-MSH) (mMC5R): 35% @ 1 mM; EC50 (mMC4R): > 1000 µM
CC(O)C1CNC(=N)N1CC1CCC(C(C)(C)C)CC1 (centres unmarked) [Compound 2718.020]	70% @ 1 mM	–	–	–	140 µM	55% @ 1 mM	–	mMC5R agonist efficacy (in words) (mMC5R): fully activate; mMC1R percent maximal stimulatory response (compared to NDP-MSH) (mMC1R; [1]): 70% @ 1 mM
CCCCC1CNC(=N)N1CC1CCC(C(C)(C)C)CC1 (centres unmarked) [Compound 2718.021]	–	–	–	–	–	–	–	EC50 (mMC5R; read-out: mMC5R EC50, agonist, mean ± SEM, at least three independent experiments, >1,000,000 = no agonist activity up to 1 mM): 17 µM; fold decreased mMC5R agonist potency (mMC5R; relative to 2718.003): 14 fold; mMC5R agonist efficacy (in words) (mMC5R): fully activate; mMC3R percent maximal stimulatory response (compared to NDP-MSH) (mMC3R; at 100 µM): 50% @ 100 µM; mMC1R percent maximal stimulatory response (compared to NDP-MSH) (mMC1R; at 100 µM): 80% @ 100 µM; mMC4R percent maximal stimulatory response (compared to NDP-MSH) (mMC4R; at 100 µM): 50% @ 100 µM
CC(C)C[C@@H]1CNC(=N)N1C[C@@H]1CCCN1CCN1C[C@@H]([C@H](C)O)N(CC2CCC(C(C)(C)C)CC2)C1=N (some centres unmarked) [Compound 2718.023]	30% @ 1 mM	–	–	–	–	–	–	mMC5R percent maximal stimulatory response (compared to NDP-MSH) (mMC5R): 80% @ 1 mM; mMC1R percent maximal stimulatory response (compared to NDP-MSH) (mMC1R; [1]): 85% @ 1 mM; EC50 (mMC4R): 40 µM; mMC4R partial agonist efficacy bin (mMC4R): A (A (20–50% receptor activation))
CCC[C@@H]1CN(CCN2CCC[C@H]2CN2C(=N)NC[C@H]2C(C)C)C(=N)N1CC1CCC(C(C)(C)C)CC1 (some centres unmarked) [Compound 2718.028]	35% @ 1 mM	10 µM	B (B (51–90% receptor activation))	–	19 µM	35% @ 1 mM	B (B (51–90% receptor activation))	–
CC(C)C[C@@H]1CNC(=N)N1C[C@@H]1CCCN1C[C@@H](Cc1ccccc1)N1C[C@H]([C@@H](C)O)N(CC2CCC(C(C)(C)C)CC2)C1=N (some centres unmarked) [Compound 2718.030]	50% @ 1 mM	4 ± 2 µM	B (B (51–90% receptor activation))	–	5 ± 2 µM	60% @ 1 mM	B (B (51–90% receptor activation))	–
CC(C)C[C@@H]1CNC(=N)N1C[C@@H]1CCCN1C[C@H](Cc1ccccc1)N1C[C@@H]([C@H](C)O)N(CC2CCC(C(C)(C)C)CC2)C1=N (some centres unmarked) [Compound 2718.031]	55% @ 1 mM	2.3 ± 0.9 µM	–	–	–	55% @ 1 mM	–	mMC5R percent maximal stimulatory response (compared to NDP-MSH) (mMC5R): 70% @ 1 mM; fold decreased mMC1R agonist potency (mMC1R; relative to 2718.001): 7 fold
CC(C)C[C@@H]1CNC(=N)N1C[C@H]1CCCN1C[C@@H](Cc1ccccc1)N1C[C@@H]([C@H](C)O)N(CC2CCC(C(C)(C)C)CC2)C1=N (some centres unmarked) [Compound 2718.032]	–	0.4 ± 0.06 µM	–	1.5 ± 0.4 µM	0.6 ± 0.2 µM	55% @ 1 mM	–	mMC3R partial agonist efficacy bin (mMC3R): B (B (51–90% receptor activation))
CC(C)C[C@H]1CNC(=N)N1C[C@@H]1CCCN1C[C@@H](Cc1ccccc1)N1C[C@@H]([C@H](C)O)N(CC2CCC(C(C)(C)C)CC2)C1=N (some centres unmarked) [Compound 2718.033]	–	0.38 ± 0.04 µM	–	3.8 ± 0.6 µM	0.9 ± 0.3 µM	60% @ 1 mM	–	mMC3R partial agonist efficacy bin (mMC3R): B (B (51–90% receptor activation))
CC(C)C[C@H]1CNC(=N)N1C[C@H]1CCCN1C[C@H](Cc1ccccc1)N1C[C@H]([C@@H](C)O)N(CC2CCC(C(C)(C)C)CC2)C1=N (some centres unmarked) [Compound 2718.034]	50% @ 1 mM	–	–	–	3 ± 1 µM	55% @ 1 mM	–	fold decreased mMC5R agonist potency (mMC5R; relative to 2718.001): 12 fold; mMC1R percent maximal stimulatory response (compared to NDP-MSH) (mMC1R; [1]): 75% @ 1 mM
CC(C)C[C@@H]1CNC(=N)N1C[C@@H]1CCCN1C[C@H](Cc1ccccc1)N1C[C@H]([C@@H](C)O)N(CC2CCC(C(C)(C)C)CC2)C1=N (some centres unmarked) [Compound 2718.035]	55% @ 1 mM	3.7 ± 0.7 µM	–	–	23 µM	55% @ 1 mM	B (B (51–90% receptor activation))	fold decreased mMC1R agonist potency (mMC1R; relative to 2718.001): 12 fold
CC(C)C[C@@H]1CNC(=N)N1C[C@H]1CCCN1C[C@@H](Cc1ccccc1)N1C[C@H]([C@@H](C)O)N(CC2CCC(C(C)(C)C)CC2)C1=N (some centres unmarked) [Compound 2718.036]	50% @ 1 mM	0.9 ± 0.3 µM	–	–	5.8 ± 0.9 µM	55% @ 1 mM	B (B (51–90% receptor activation))	–
CC(C)C[C@H]1CNC(=N)N1C[C@@H]1CCCN1C[C@@H](Cc1ccccc1)N1C[C@H]([C@@H](C)O)N(CC2CCC(C(C)(C)C)CC2)C1=N (some centres unmarked) [Compound 2718.037]	50% @ 1 mM	0.9 ± 0.2 µM	B (B (51–90% receptor activation))	–	7 ± 1 µM	55% @ 1 mM	B (B (51–90% receptor activation))	–
CC(C)C[C@@H]1CNC(=N)N1C[C@H]1CCCN1C[C@H](Cc1ccccc1)N1C[C@@H]([C@H](C)O)N(CC2CCC(C(C)(C)C)CC2)C1=N (some centres unmarked) [Compound 2718.038]	–	0.6 ± 0.1 µM	–	5.9 ± 0.9 µM	1.4 ± 0.3 µM	–	–	fold decreased mMC5R agonist potency (mMC5R; relative to 2718.001): 5 fold; mMC3R partial agonist efficacy bin (mMC3R): B (B (51–90% receptor activation)); EC50 (mMC4R): 1.6 ± 0.3 µM; mMC4R partial agonist efficacy bin (mMC4R): B (B (51–90% receptor activation))
CC(C)C[C@H]1CNC(=N)N1C[C@@H]1CCCN1C[C@H](Cc1ccccc1)N1C[C@@H]([C@H](C)O)N(CC2CCC(C(C)(C)C)CC2)C1=N (some centres unmarked) [Compound 2718.039]	50% @ 1 mM	4 ± 2 µM	B (B (51–90% receptor activation))	–	45 µM	55% @ 1 mM	B (B (51–90% receptor activation))	–
CC(C)C[C@H]1CNC(=N)N1C[C@H]1CCCN1C[C@@H](Cc1ccccc1)N1C[C@@H]([C@H](C)O)N(CC2CCC(C(C)(C)C)CC2)C1=N (some centres unmarked) [Compound 2718.040]	–	0.9 ± 0.3 µM	–	3.7 ± 0.4 µM	0.5 ± 0.03 µM	60% @ 1 mM	–	mMC3R partial agonist efficacy bin (mMC3R): B (B (51–90% receptor activation))
CC(C)C[C@@H]1CNC(=N)N1C[C@H]1CCCN1C[C@H](Cc1ccccc1)N1C[C@H]([C@@H](C)O)N(CC2CCC(C(C)(C)C)CC2)C1=N (some centres unmarked) [Compound 2718.041]	60% @ 1 mM	40 µM	–	–	8 ± 1 µM	60% @ 1 mM	B (B (51–90% receptor activation))	fold decreased mMC1R agonist potency (mMC1R; relative to 2718.001): 125 fold
CC(C)C[C@H]1CNC(=N)N1C[C@@H]1CCCN1C[C@H](Cc1ccccc1)N1C[C@H]([C@@H](C)O)N(CC2CCC(C(C)(C)C)CC2)C1=N (some centres unmarked) [Compound 2718.042]	65% @ 1 mM	2.9 ± 0.2 µM	–	–	21.3 µM	65% @ 1 mM	B (B (51–90% receptor activation))	fold decreased mMC1R agonist potency (mMC1R; relative to 2718.001): 9 fold
CC(C)C[C@H]1CNC(=N)N1C[C@H]1CCCN1C[C@@H](Cc1ccccc1)N1C[C@H]([C@@H](C)O)N(CC2CCC(C(C)(C)C)CC2)C1=N (some centres unmarked) [Compound 2718.043]	55% @ 1 mM	3.5 ± 0.2 µM	B (B (51–90% receptor activation))	–	8 ± 2 µM	55% @ 1 mM	B (B (51–90% receptor activation))	–
CC(C)C[C@H]1CNC(=N)N1C[C@H]1CCCN1C[C@H](Cc1ccccc1)N1C[C@@H]([C@H](C)O)N(CC2CCC(C(C)(C)C)CC2)C1=N (some centres unmarked) [Compound 2718.044]	–	7 ± 2 µM	B (B (51–90% receptor activation))	5.6 ± 0.8 µM	2.9 ± 0.9 µM	50% @ 1 mM	B (B (51–90% receptor activation))	mMC3R partial agonist efficacy bin (mMC3R): A (A (20–50% receptor activation))
CC(C)C[C@@H]1CNC(=N)N1C[C@@H]1CCCN1C[C@@H](CC1CCCCC1)N1C[C@H]([C@@H](C)O)N(CC2CCC(C(C)(C)C)CC2)C1=N (some centres unmarked) [Compound 2718.045]	–	1 ± 0.1 µM	–	3.5 ± 0.2 µM	2.2 ± 0.7 µM	50% @ 1 mM	–	fold decreased mMC5R agonist potency (mMC5R; relative to 2718.002): 8 fold; mMC3R partial agonist efficacy bin (mMC3R): B (B (51–90% receptor activation)); fold decreased mMC1R agonist potency (mMC1R; relative to 2718.002): 4 fold
